# Test results from article PMC12670164, “In vitro and clinical data demonstrate negligible risk of drug–drug interactions with opelconazole, a novel inhaled antifungal agent” (Journal of Antimicrobial Chemotherapy, 2025).
# How the values were obtained:
# Test in all cases: Transporter inhibition
# Assay type in all cases: in vitro ADME
# OAT1 = target: T1, OAT1 (Homo sapiens, UniProt Q4U2R8); settings: 0.5 and 5 μM tested
# T1 construct: expressed in transfected cells
# T1 sequence (Q4U2R8 1-563): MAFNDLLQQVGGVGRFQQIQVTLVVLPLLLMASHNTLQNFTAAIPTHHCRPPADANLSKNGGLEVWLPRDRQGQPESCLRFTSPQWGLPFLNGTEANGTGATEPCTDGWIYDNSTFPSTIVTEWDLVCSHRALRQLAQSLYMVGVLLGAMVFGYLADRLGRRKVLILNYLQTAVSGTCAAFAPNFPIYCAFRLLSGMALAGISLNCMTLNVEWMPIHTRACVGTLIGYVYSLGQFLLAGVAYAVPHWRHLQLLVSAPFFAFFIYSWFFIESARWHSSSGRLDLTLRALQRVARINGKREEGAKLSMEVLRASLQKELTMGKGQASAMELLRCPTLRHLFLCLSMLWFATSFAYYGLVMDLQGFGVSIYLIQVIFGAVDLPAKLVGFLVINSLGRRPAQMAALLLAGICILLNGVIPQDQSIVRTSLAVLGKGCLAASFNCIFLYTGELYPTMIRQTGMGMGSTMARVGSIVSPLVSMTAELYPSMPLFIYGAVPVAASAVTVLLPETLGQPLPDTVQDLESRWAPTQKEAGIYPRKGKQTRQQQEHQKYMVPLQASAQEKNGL
# Experimental: (§1) Human transporter protein interactions with opelconazole as a potential substrate and/or inhibitor were assessed for the following key carrier transporters: organic anion transporters, OAT1 and OAT3; organic cation transporters, OCT1 and OCT2; OATP1B1 and OATP1B3; multidrug and toxin extrusion, MATE-1 and MATE2-K; key ATP-binding cassette (ABC) transporters including P-gp, breast cancer resistance protein (BCRP) and bile salt export pump (BSEP). Two concentrations of opelconazole, 0.5 and 5 μM, were tested using MDCKII cells, human embryonic kidney 293 cells and BSEP-transfected sf9 membrane vesicles and then analysed by LC-tandem MS to determine transporter inhibition and whether opelconazole was a transporter substrate. The viability of experimental test systems was confirmed with controls and known probe substrates and probe inhibitors.
# OAT3 = target: T2, OAT3 (Homo sapiens, UniProt Q8TCC7); settings: 0.5 and 5 μM tested
# T2 construct: expressed in transfected cells
# T2 sequence (Q8TCC7 1-542): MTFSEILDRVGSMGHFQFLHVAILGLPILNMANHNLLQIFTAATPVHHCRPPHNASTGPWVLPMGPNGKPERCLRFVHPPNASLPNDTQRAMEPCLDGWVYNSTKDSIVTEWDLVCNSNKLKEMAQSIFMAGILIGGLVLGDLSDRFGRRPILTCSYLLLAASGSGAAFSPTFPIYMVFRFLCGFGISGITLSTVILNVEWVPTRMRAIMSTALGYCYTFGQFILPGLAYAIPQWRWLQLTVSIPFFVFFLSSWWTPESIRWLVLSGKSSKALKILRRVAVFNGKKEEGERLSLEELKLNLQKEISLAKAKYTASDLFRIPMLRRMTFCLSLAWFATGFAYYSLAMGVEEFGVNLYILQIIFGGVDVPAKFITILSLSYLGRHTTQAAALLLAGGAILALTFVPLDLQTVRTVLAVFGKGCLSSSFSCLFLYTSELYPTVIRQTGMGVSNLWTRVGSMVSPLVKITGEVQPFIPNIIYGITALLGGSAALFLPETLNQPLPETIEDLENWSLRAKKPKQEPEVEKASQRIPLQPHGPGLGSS
# Experimental: as §1
# OCT1 = target: T3, OCT1 (Homo sapiens, UniProt O15245); settings: 0.5 and 5 μM tested
# T3 construct: expressed in transfected cells
# T3 sequence (O15245 1-554): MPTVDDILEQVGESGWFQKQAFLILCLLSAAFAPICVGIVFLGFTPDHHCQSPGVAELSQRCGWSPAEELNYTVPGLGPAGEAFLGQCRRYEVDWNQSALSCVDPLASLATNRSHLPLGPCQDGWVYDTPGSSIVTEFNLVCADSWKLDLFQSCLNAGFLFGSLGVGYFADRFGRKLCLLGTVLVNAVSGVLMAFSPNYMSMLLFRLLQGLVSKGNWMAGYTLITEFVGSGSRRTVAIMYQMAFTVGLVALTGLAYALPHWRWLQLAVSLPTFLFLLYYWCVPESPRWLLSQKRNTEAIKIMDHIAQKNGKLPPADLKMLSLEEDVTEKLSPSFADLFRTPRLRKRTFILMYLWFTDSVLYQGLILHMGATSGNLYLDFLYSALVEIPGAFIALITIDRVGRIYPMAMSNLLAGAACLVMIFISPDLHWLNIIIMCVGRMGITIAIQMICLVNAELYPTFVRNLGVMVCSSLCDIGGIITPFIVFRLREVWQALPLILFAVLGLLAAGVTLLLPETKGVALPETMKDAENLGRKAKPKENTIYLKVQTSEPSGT
# Experimental: as §1
# OCT2 = target: T4, OCT2 (Homo sapiens, UniProt O15244)
# T4 construct: expressed in transfected cells
# T4 sequence (O15244 1-555): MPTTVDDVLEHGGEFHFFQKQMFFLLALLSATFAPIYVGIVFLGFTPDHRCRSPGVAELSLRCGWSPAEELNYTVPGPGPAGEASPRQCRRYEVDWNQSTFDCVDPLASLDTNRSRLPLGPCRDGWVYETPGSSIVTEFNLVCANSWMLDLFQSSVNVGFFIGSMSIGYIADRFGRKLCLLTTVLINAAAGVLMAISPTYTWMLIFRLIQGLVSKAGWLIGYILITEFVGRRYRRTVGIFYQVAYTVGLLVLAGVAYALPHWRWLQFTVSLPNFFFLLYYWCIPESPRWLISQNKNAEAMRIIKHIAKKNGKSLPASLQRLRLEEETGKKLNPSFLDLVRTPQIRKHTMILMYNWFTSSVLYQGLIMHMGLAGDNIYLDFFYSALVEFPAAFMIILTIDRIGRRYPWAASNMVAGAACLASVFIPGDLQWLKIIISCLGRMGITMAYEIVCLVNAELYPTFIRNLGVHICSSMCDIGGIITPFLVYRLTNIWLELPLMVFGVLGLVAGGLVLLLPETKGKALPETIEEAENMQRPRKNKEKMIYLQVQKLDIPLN
# Experimental: as §1
smiles,measurement,setting,value
Cc1cc(N2CCN(c3ccc(C(=O)Nc4ccc(F)cc4)cc3)CC2)ccc1OC[C@@H]1CO[C@@](Cn2cncn2)(c2ccc(F)cc2F)C1 [opelconazole],inhibitory interaction with OAT1,OAT1,negligible inhibitory interactions
same,inhibitory interaction with OAT3,OAT3,negligible inhibitory interactions
same,inhibitory interaction with OCT1,OCT1,negligible inhibitory interactions
same,inhibitory interaction with OCT2,OCT2; 0.5 μM opelconazole,negligible inhibitory interactions
same,inhibition of OCT2 relative to solvent control,OCT2; 5 μM opelconazole,39%
